Laboratory results: patent US9650379B2 (CHONG KUN DANG PHARMACEUTICAL CORP., priority 2013, dated 2017)

Assays:
[1] = target: T1, HDAC6 human recombinant (Homo sapiens, UniProt Q9UBN7); assay: Inhibition of HDAC6 activity (fluorimetric assay); format: biochemical; details: test concentrations 0.1, 1, 10, 100 and 1000 nM; 37° C., 60 minutes
T1 construct: purchased Calbiochem 382180
T1 sequence (Q9UBN7 1-1215): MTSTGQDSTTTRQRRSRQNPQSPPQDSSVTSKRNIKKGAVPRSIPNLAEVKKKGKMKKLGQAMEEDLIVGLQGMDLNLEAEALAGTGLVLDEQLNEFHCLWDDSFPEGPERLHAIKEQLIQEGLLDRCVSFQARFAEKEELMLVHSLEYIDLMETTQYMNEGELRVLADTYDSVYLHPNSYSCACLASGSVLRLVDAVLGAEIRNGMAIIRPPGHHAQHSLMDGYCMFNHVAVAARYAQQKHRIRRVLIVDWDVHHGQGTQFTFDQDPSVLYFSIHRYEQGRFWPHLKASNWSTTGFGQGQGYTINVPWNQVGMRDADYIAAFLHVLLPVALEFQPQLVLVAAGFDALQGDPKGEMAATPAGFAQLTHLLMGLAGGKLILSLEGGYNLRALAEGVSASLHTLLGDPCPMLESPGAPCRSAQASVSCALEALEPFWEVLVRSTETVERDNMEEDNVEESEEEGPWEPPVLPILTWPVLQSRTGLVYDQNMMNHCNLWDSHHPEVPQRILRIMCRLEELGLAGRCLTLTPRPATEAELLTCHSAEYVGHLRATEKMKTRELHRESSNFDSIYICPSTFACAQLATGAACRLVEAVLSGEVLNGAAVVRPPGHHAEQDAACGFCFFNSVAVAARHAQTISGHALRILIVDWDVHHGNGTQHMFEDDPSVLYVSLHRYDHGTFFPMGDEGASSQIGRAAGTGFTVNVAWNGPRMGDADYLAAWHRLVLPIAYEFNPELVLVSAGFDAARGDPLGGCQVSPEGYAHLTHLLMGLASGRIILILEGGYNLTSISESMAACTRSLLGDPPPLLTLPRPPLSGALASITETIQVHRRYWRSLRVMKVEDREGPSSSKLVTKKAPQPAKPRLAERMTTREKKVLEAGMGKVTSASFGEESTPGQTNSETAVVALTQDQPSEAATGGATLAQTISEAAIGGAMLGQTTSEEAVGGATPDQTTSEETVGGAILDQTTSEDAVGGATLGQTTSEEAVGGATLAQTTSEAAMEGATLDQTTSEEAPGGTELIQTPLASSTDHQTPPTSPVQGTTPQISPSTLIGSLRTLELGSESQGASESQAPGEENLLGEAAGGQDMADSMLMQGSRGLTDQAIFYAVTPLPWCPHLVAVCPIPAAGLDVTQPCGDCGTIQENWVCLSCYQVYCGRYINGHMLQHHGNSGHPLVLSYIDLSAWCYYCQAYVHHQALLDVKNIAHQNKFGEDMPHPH
Procedure, shortened: (§1)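 HDAC1 tested with the kit assay mixture at 100, 1000 and 10000 nM compound; recombinant human HDAC6 at 0.1, 1, 10, 100 and 1000 nM. Reaction ran 60 min at 37° C, then developer was added for 30 min at 37° C and fluorescence quantified.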

[2] = target: T2, HDAC1 (Homo sapiens, UniProt Q13547); assay: Inhibition of HDAC1 activity (HDAC1 fluorimetric drug discovery assay kit); format: biochemical; details: test concentrations 100, 1000 and 10000 nM; 37° C., 60 minutes
T2 construct: purchased Enzolifesciences BML-AK511
T2 sequence (Q13547 whole entry): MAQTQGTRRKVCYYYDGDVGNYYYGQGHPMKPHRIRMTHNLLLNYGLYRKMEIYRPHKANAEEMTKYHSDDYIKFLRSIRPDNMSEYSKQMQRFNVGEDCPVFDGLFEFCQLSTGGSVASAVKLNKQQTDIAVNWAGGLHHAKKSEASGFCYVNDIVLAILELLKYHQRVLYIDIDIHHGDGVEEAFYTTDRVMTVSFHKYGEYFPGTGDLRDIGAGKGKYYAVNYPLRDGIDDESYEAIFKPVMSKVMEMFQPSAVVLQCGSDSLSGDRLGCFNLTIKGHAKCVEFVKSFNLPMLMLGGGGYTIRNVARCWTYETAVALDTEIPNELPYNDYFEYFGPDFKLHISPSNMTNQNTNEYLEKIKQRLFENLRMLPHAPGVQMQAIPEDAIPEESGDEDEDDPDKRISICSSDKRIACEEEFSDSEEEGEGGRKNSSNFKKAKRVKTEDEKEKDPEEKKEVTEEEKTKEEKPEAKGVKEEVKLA
Procedure, shortened: as §1

SMILES | IC50 [1] [nM] | IC50 [2] [nM]
C[C@@H]1CN(c2cnc3c(ccn3Cc3ccc(C(=O)NO)cc3)c2)C[C@H](C)N1CC(C)(C)F [Compound 866, 4-((5-((3S,5R)-4-(2-fluoro-2-methylpropyl)-3,5-dimethylpiperazin-1-yl)-1H-pyrrolo[2,3-b]pyridin-1-yl)methyl)-N-hydroxybenzamide] | 12 | 1630
O=C(NO)c1ccc(Cn2ccc3cc(C4CCN(Cc5ccccn5)CC4)cnc32)cc1 [Compound 844] | 3.4 | 550
CC1(C)CC=C(c2cnc3c(ccn3Cc3ccc(C(=O)NO)cc3)c2)CC1 [Compound 649] | 93 | 7050
O=C(NO)c1ccc(Cn2ccc3ccc(C4CCN(Cc5cccnc5)CC4)nc32)cc1 [Compound 992, N-hydroxy-4-((6-(1-(pyridin-3-ylmethyl)piperidin-4-yl)-1H-pyrrolo[2,3-b]pyridin-1-yl)methyl)benzamide] | 34 | 860
O=C(NO)c1ccc(Cn2ccc3cc(N4CCC5(CC4)CN(Cc4ccccn4)C5)cnc32)cc1 [Compound 1126, N-hydroxy-4-((5-(2-(pyridin-2-ylmethyl)-2,7-diazaspiro[3.5]nonan-7-yl)-1H-pyrrolo[2,3-b]pyridin-1-yl)methyl)benzamide] | 1.24 | 640
O=C(NO)c1ccc(Cn2ccc3c(-c4cncnc4)ccnc32)cc1 [Compound 659, N-hydroxy-4-((4-(pyrimidin-5-yl)-1H-pyrrolo[2,3-b]pyridin-1-yl)methyl)benzamide] | 4 | 900
O=C(NO)c1ccc(Cn2ccc3c(N4CCN(C(=O)C5(C(F)(F)F)CCC5)CC4)ccnc32)cc1 [Compound 703, N-hydroxy-4-((4-(4-(1-(trifluoromethyl)cyclobutanecarbonyl)piperazin-1-yl)-1H-pyrrolo[2,3-b]pyridin-1-yl)methyl)benzamide] | 6 | 720
CC(C)(C)OC(=O)N1CC=C(c2ccc3ccn(Cc4ccc(C(=O)NO)cc4)c3n2)CC1 [Compound 744, tert-butyl 4-(1-(4-(hydroxycarbamoyl)benzyl)-1H-pyrrolo[2,3-b]pyridin-6-yl)-5,6-dihydropyridine-1(2H)-carboxylate] | 62 | 1890
O=C(NO)c1ccc(Cn2ccc3cc(C4=CCC(F)(F)CC4)cnc32)cc1 [Compound 650, 4-((5-(4,4-difluorocyclohex-1-en-1-yl)-1H-pyrrolo[2,3-b]pyridin-1-yl)methyl)-N-hydroxybenzamide] | 14 | 2300
O=C(NO)c1ccc(Cn2ccc3c(N4CCN(Cc5ccccc5)CC4)ccnc32)cc1 [Compound 704, 4-((4-(4-benzylpiperazin-1-yl)-1H-pyrrolo[2,3-b]pyridin-1-yl)methyl)-N-hydroxybenzamide] | 9 | 620
C[C@@H]1CN(c2cnc3c(ccn3Cc3ccc(C(=O)NO)cc3)c2)C[C@H](C)N1Cc1cccc(F)c1 [Compound 857, 4-((5-((3S,5R)-4-(3-fluorobenzyl)-3,5-dimethylpiperazin-1-yl)-1H-pyrrolo[2,3-b]pyridin-1-yl)methyl)-N-hydroxybenzamide] | 24.8 | 2140
O=C(NO)c1ccc(Cn2ccc3cc(C4CCN(Cc5ccc(-c6ccco6)cc5)CC4)cnc32)cc1 [Compound 875, 4-((5-(1-(4-(furan-2-yl)benzyl)piperidin-4-yl)-1H-pyrrolo[2,3-b]pyridin-1-yl)methyl)-N-hydroxybenzamide] | 32.4 | 2320
O=C(NO)c1ccc(Cn2ccc3c(C4CCN(Cc5cccc(F)c5)CC4)ccnc32)cc1 [Compound 870, 4-((4-(1-(3-fluorobenzyl)piperidin-4-yl)-1H-pyrrolo[2,3-b]pyridin-1-yl)methyl)-N-hydroxybenzamide] | 20.6 | 330
